In patent US20230356105A1, “TETRAAZADODECANE BASED CHELATING AGENTS FOR SEPARATION OF RARE EARTH ELEMENTS AND METHOD THEREFOR” (Ustav Organicke Chemie a Biochemie AV CR V.V.I., priority 2020, published 2023):
“And” between values parts separate entries of the source, which are not always exact repeats. Identical values can stand only once. Marks after values point to notes of the source that are not given here.

Columns and labels:
Assay type in all cases: physicochemical
[1] = Separation of industrially relevant binary mixtures by precipitation using L1, L2 and L3 (Example 10); conditions: supernatant
Procedure: Analogous to Example 7), three sets of reaction mixtures with two metals and either compound L1, L2, or L3 were prepared in a 96-well plate with the following differences: each well was equipped with one PTFE-coated magnetic stir bar, the well plate was sealed with a silicon cover, and the reaction mixtures were stirred on a magnetic stirrer for 2 days at room temperature. Analogous to Example 7), the well plate was then centrifuged and concentrations of the metals were determined using ICP-OES. […] It is evident from the results that certain degrees of enrichment are achieved for very different combinations of metals, and that ligands L1, L2, and L3 have different selectivities for given combinations of metals.

[2] = Separation of Gd/Lu mixture by repeated precipitation using L1 (Example 13); conditions: for Precipitate concentration [mM] Gd / Precipitate concentration [mM] Lu: dissolved to 200 μL
Procedure: Stock solutions were pipetted into round-bottom 2 mL Eppendorf tubes as follows: • 1. 10 μL 100 mM aqueous solution of GdCl3 • 2. 10 μL 100 mM aqueous solution of LuCl3 • 3. 20 μL 100 mM aqueous solution of compound • 4. 33.3 μL 3 M MOPS buffer pH=7. • 5. 127.6 μL water.
Nine identical reaction mixtures were prepared and split into three groups A, B, C. Each tube was equipped with one PTFE-coated magnetic stir bar and sealed, and the mixture was stirred on a magnetic stirrer for 24 hours at room temperature. The tubes were then centrifuged and the supernatants were carefully pipetted out and transferred to a new set of tubes. Precipitates from group A were dissolved by addition of 100 μL 1 M HCl at room temperature over the course of 30 mins and then diluted to 200 μL by the addition of 100 μL water. Concentrations of Gd and Lu in the supernatants and in re-dissolved precipitates from group A were determined by ICP-OES. Precipitates from groups B and C were further processed as follows: the precipitates were dissolved by addition of 100 μL 1 M HCl at room temperature at pH 0 over the course of 30 mins, and the pH was then adjusted to approximately 7 by the addition of 50 μL 2 M NaOH, and the overall volume adjusted to 200 μL by the addition of water. The prepared mixtures were subjected to a second round of precipitation and were stirred on a magnetic stirrer for 24 hours at room temperature. Then, the tubes were again centrifuged and supernatants were carefully pipetted out and transferred to a new set of tubes. Samples from group B were treated identically to the samples from group A previously, and the Gd and Lu content in the supernatants and precipitates was determined by ICP-OES. Precipitates from group C were subjected to a third cycle of precipitation and followed by Gd and Lu content determination analogously to the procedures described above.

[3] = Separation of Nd/Pr/Tb/Dy mixture by precipitation using L5 (Example 21); conditions: for precipitate after 20 hrs: dissolved to 500 μL; for precipitate after 20 hrs composition / solution after 20 hrs composition: percent molar
Procedure: Stock solutions were pipetted into 4 mL glass vials to prepare reaction mixtures with concentrations as follows: • 1. 38.5 mM (1.1 eq) chelator L5 • 2. 35 mM (1 eq) total LnCl3 content (from a stock solution containing a mixture of Ln=Nd, Pr, Tb, and Dy, in a ratio of 3.3:1:1:1, Nd:Pr:Tb:Dy) • 3. 1750 mM (50 eq) MOPS pH=7
The total reaction volume was 3.2 mL. A PTFE-coated stir bar was added to this vial, and the vial was capped and stirred with the temperature maintained at 40° C. by use of an aluminium heating block on a magnetic stirrer. After 20 hours, a 500 μL aliquot of the reaction mixture was taken from the vial. This was centrifuged in a 2 mL plastic Eppendorf centrifuge vial, and the supernatant was carefully pipetted from this and transferred to a new set of tubes. The precipitate was dissolved by addition of 500 μL 1 M HCl, and the absolute concentration of Nd, Pr, Tb, and Dy in both the supernatants and precipitates was determined by ICP-OES.
The percent molar composition of each phase is also provided, showing the minimal selectivity in precipitation under these conditions.

[4] = Use of additives to improve separation of Nd/Dy mixture by precipitation with L5 (Example 18); conditions: no additive (0 mM); 11 mM L5
How it was run: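 Mixtures held 5 mM NdCl3, 5 mM DyCl3 and 500 mM MOPS pH 7 with L5, plus additives at variable concentration adjusted to pH 7. Stirred 18 h in sealed cuvettes, then centrifuged; precipitate redissolved in 1 M HCl. Nd and Dy measured in supernatant and precipitate by ICP-OES.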

O=C(O)CN1CCN(CC(=O)O)CCN(Cc2ccccc2)CCN(CC(=O)O)CC1 [L1, 2,2′,2″-(10-benzyl-1,4,7,10-tetraazacyclododecane-1,4,7-triyl)triacetic Acid]
[mM] M1 ([1]; M1/M2=Eu/Y): 0.118 mM
[mM] M2 ([1]; M1/M2=Eu/Y): 0.265 mM
[mM] M1 ([1]; M1/M2=La/Ce): 0.603 mM
[mM] M2 ([1]; M1/M2=La/Ce): 0.388 mM
[mM] M1 ([1]; M1/M2=Nd/Ce): 0.397 mM
[mM] M2 ([1]; M1/M2=Nd/Ce): 0.038 mM
[mM] M1 ([1]; M1/M2=Nd/Dy): 0.204 mM
[mM] M2 ([1]; M1/M2=Nd/Dy): 0.302 mM
[mM] M1 ([1]; M1/M2=Nd/La): 0.177 mM
[mM] M2 ([1]; M1/M2=Nd/La): 0.559 mM
[mM] M1 ([1]; M1/M2=Nd/Pr): 0.530 mM
[mM] M2 ([1]; M1/M2=Nd/Pr): 0.572 mM
[mM] M1 ([1]; M1/M2=Nd/Tb): 0.325 mM
[mM] M2 ([1]; M1/M2=Nd/Tb): 0.142 mM
[mM] M1 ([1]; M1/M2=Pr/Ce): 0.186 mM
[mM] M2 ([1]; M1/M2=Pr/Ce): 0.285 mM
[mM] M1 ([1]; M1/M2=Pr/Dy): 0.216 mM
[mM] M2 ([1]; M1/M2=Pr/Dy): 0.157 mM
[mM] M1 ([1]; M1/M2=Pr/La): 0.246 mM
[mM] M2 ([1]; M1/M2=Pr/La): 0.569 mM
[mM] M1 ([1]; M1/M2=Tb/Dy): 0.216 mM
[mM] M2 ([1]; M1/M2=Tb/Dy): 0.284 mM
[mM] M1 ([1]; M1/M2=Tb/Eu): 0.206 mM
[mM] M2 ([1]; M1/M2=Tb/Eu): 0.159 mM
[mM] M1 ([1]; M1/M2=Tb/Pr): 0.116 mM
[mM] M2 ([1]; M1/M2=Tb/Pr): 0.211 mM
[mM] M1 ([1]; M1/M2=Tb/Y): 0.143 mM
[mM] M2 ([1]; M1/M2=Tb/Y): 0.361 mM
Supernatant concentration [mM] Lu ([2]; group A, 1st precipitation): 4.28 mM and 4.35 mM and 4.12 mM and 4.36 mM
Precipitate concentration [mM] Gd ([2]; group A, 1st precipitation): 4.24 mM and 4.38 mM and 4.22 mM and 4.12 mM
Precipitate concentration [mM] Lu ([2]; group A, 1st precipitation): 0.99 mM and 1.08 mM and 0.98 mM and 0.90 mM
Supernatant concentration [mM] Lu ([2]; group B, 2nd precipitation): 0.80 mM and 0.83 mM and 0.77 mM
Precipitate concentration [mM] Gd ([2]; group B, 2nd precipitation): 3.33 mM and 3.40 mM and 3.70 mM and 3.48 mM
Precipitate concentration [mM] Lu ([2]; group B, 2nd precipitation): 0.23 mM and 0.21 mM and 0.22 mM (2×)
Supernatant concentration [mM] Lu ([2]; group C, 3rd precipitation): 0.24** mM and 0.17 mM and 0.16 mM and 0.19 mM
Precipitate concentration [mM] Lu ([2]; group C, 3rd precipitation): 0.05** mM and 0.07 mM and 0.06 mM

O=C(O)CN1CCN(CC(=O)O)CCN(Cc2cccc3ccccc23)CCN(CC(=O)O)CC1 [L5, 2,2′,2″-(10-(naphthalene-1-ylmethyl)-1,4,7,10-tetraazacyklododekane-1,4,7-triyl)triacetic acid]
solution after 20 hrs ([3]; Ln=Dy): 0.58 mM
precipitate after 20 hrs ([3]; Ln=Dy): 4.69 mM
precipitate after 20 hrs composition ([3]; Ln=Dy): 14.9%
solution after 20 hrs composition ([3]; Ln=Dy): 17.1%
solution after 20 hrs ([3]; Ln=Nd): 1.85 mM
precipitate after 20 hrs ([3]; Ln=Nd): 16.68 mM
precipitate after 20 hrs composition ([3]; Ln=Nd): 53.0%
solution after 20 hrs composition ([3]; Ln=Nd): 54.3%
solution after 20 hrs ([3]; Ln=Pr): 0.47 mM
precipitate after 20 hrs ([3]; Ln=Pr): 4.85 mM
precipitate after 20 hrs composition ([3]; Ln=Pr): 15.4%
solution after 20 hrs composition ([3]; Ln=Pr): 13.9%
solution after 20 hrs ([3]; Ln=Tb): 0.50 mM
precipitate after 20 hrs ([3]; Ln=Tb): 5.28 mM
precipitate after 20 hrs composition ([3]; Ln=Tb): 16.8%
solution after 20 hrs composition ([3]; Ln=Tb): 14.7%
Precipitate concentration [mM] Dy [4]: 4.60 mM
Precipitate concentration [mM] Nd [4]: 4.98 mM
Supernatant concentration [mM] Dy [4]: 0.37 mM
Supernatant concentration [mM] Nd [4]: 0.07 mM
